Columns and labels:
enucleated mouse oocytes = assay: Chromosome segregation at the first mitosis after nuclear transfer; assay type: cell-based
Description: To further investigate the mechanism of genomic instability after somatic cell nuclear transfer, we transferred genomes of somatic and embryonic mouse cells into enucleated mouse oocytes. As a control for our manipulations, we transplanted oocyte genomes from one MII oocyte to another. We first quantified the number of abnormal anaphase figures in unmanipulated oocytes, including bridges, fragments, and missegregating chromosomes. Abnormalities in parthenotes were few, or less than 5 percent at anaphase of the second meiosis and the first mitosis (FIG. 13A). […] Upon transfer of mitotic fibroblast or ES cell genomes into MII oocytes, the frequency of these abnormalities remained unaltered, or 6% and 6.9%. […] Abnormal anaphase figures were further increased when using interphase genomes of either cumulus cells or T cells.
As different cell types are known to differ in their gene expression pattern, we first determined whether gene expression during the first cell cycle was required for a normal chromosome segregation at the first embryonic mitosis. […] As cell-type specific gene expression appeared to be irrelevant to chromosome segregation at the first mitosis, we investigated whether other cell-type specific properties of the genome were of importance. It appeared conceivable that for normal chromosome segregation, the prior duplication of the genome at interphase must also be normal. To distinguish whether the chromosome segregation we observed were due to abnormal spindle attachment to chromosomes or due to structural deficiencies that can arise during DNA replication, we stained anaphases with antibodies recognizing centromeres. […]
To determine whether other parameters known to affect the developmental efficiency after somatic cell nuclear transfer affected the fidelity of segregation at the first mitosis, we investigated the role of the nuclear structure. […] We transferred somatic nuclei within the first hour post activation, and analyzed chromosome segregation at the first mitosis. […]

human oocytes = assay: Development of human somatic cell nuclear transfer oocytes beyond the cleavage stage; assay type: cell-based
Description: Oocytes were enucleated using microtubule birefringence (Oosight) as described previously by Noggle et al., 2011. Nuclear transfer was performed by fusion of somatic cells to oocytes using inactivated Sendai virus diluted 1:10 to 1:20 in suspension medium. Fusion was confirmed visually. 1-3 hours post fusion, oocytes were activated using 3 μM ionomycin in Global total for 5 minutes at 37 degrees celsius, followed by culture in 10 μM puromycin, 2 mM 6-DMAP, as well as the histone deacetylase (HDAC) inhibitors scriptaid and nch51 for 4 to 4.5 hours. Activated constructs were cultured in HDAC inhibitor for an additional 10-16 hours, followed by culture in Global total only. Culture was performed in a MINC incubator fed with gas containing 6% CO2, 5% oxygen and 89% nitrogen. Calcium-free medium was used for some of the manipulations resulting in nuclear transfer ES cells.
For some of the experiments described above additional modifications were introduced as described in Tachibana et al., 2013. Caffeine at a 1 mM concentration was added to the incubation medium during enucleation and oocyte fusion. Oocytes were activated using 2-4 pulses of 50 μs width at 2.7 kV/cm in mannitol containing fusion medium using an LF201 pulser (Nepagene), followed by 4 hours of culture in 2 mM 6-DMAP. Activated constructs were cultured in Global total containing 10% FBS and TSA for 12 hours, followed by culture to the blastocysts stage in medium containing 10% FBS.
The derivation of nuclear transfer ES cell lines from BJ fibroblasts at passage 11 was performed using nuclear transfer 30 min prior to the removal of the oocyte genome in the presence of 1 mM caffeine. Derivation of the adult cell NT-ES cell line was performed using somatic cells at passage 8, from a subject with T1D (ID-1018). Oocytes were transported in GMOPSplus containing 1 mM caffeine. Upon completion of the manipulation, oocytes were incubated for 45 min-1 h in calcium-free MCZB, then placed in calcium containing medium for 10 min prior to activation and culture as described above. Oocyte activation was performed within 2 hours post transfer using 4 electrical pulses, followed by incubation in medium containing HDAC inhibitors scriptaid and nch51, in addition to 10 μg/ml puromycin and 2 mM 6-DMAP for 4 hours, and thereafter, medium containing HDAC inhibitor for 15 hours. Culture was performed in a Heracell 150i incubator containing 5% CO2 at 37° C., in Global medium (IVFonline LGGG-050) containing 10% fetal bovine serum. ES cell derivation was conducted in medium containing DMEM/F12 supplemented with 10% KO-SR and 10% FBS, Rock inhibitor Y-27632, thiazovivin, non-essential amino acids, 10 ng/ml bFGF, Glutamax, and beta mercaptoethanol (all reagents from Life Technologies). Upon attachment, trophectoderm cells were ablated using laser pulses using a Lykos laser (Hamilton Thorne). Outgrowths were apparent within 10 days of plating, and were picked when colonies reached a size of about 1 mm in diameter. Passaging was done enzymatically using TrpLE (Life Technologies) and standard ES cell medium (substituting FBS with KO-SR and DMEM/F12 with KO-DMEM) using Rock inhibitor Y-27632 for the first day after plating.

enucleated human oocytes = assay: Activation and polar body extrusion after transfer of a mitotic somatic genome; assay type: cell-based
Description: We next sought to determine the timing and molecular mechanism of these chromosomal abnormalities. We reasoned that if the removal of the oocyte spindle removed essential components, then these defects should be apparent at the second meiotic division. We removed the oocyte spindle-chromosome complex, and transferred the mitotic genome of a somatic cell that had been collected upon treatment with nocodazole and were kept on ice prior to transfer (FIG. 12A). Remarkably, within 1-2 hours post transfer, birefringent spindles were assembled in oocytes and chromosomes were aligned on the metaphase plate (FIGS. 12A, 12B, 12C). Upon artificial activation using a calcium ionophore and puromycin, 16/19 oocytes segregated somatic cell chromatin into a polar body and formed a single pronucleus in the activated oocyte (FIG. 12F-I). And like upon segregation of oocyte chromatin, a midbody formed and the chromosome passenger complex component survivin localized to the midbody (FIG. 12E). To examine the accuracy of chromosome segregation, (pseudo-) polar bodies were biopsied and the karyotype determined using nucleotide polymorphism arrays. […] However, when we analyzed the karyotype of blastomeres using nucleotide arrays, we found a large number of karyotypic abnormalities (FIG. 12I-L). […]

oocytes = conditions: oocyte activation with puromycin versus 6-dmap; cited from earlier work
[1] = enucleated oocytes, agent used at activation / first 17 hours of embryo culture

CN(C)c1ncnc2nc[nH]c12 [6-dmap, 6-(dimethylamino)purine]
dividing embryos severely abnormal (enucleated mouse oocytes; somatic nuclei transferred within first hour after activation and kinase inhibition with 6-dmap): 90%

CC[C@H](C)[C@@H]1NC(=O)CNC(=O)[C@@H]2Cc3c([nH]c4cc(O)ccc34)[S+]([O-])C[C@@H](NC(=O)CNC1=O)C(=O)N[C@@H](CC(N)=O)C(=O)N1C[C@H](O)C[C@H]1C(=O)N[C@@H]([C@@H](C)[C@@H](O)CO)C(=O)N2 (stereo partly drawn) [alpha amanitin]
frequency of normal mitotic figures (enucleated mouse oocytes; added to culture medium during first cell cycle): did not significantly increase

Cn1c(=O)c2c(ncn2C)n(C)c1=O [caffeine]
efficiency and quality of blastocysts (human oocytes; caffeine also during oocyte transport, calcium omitted from manipulation medium): most efficient and high quality blastocyts
blastocyst development (human oocytes; electrical pulse for activation and caffeine during oocyte manipulation): 10%

COc1ccc(C[C@H](N)C(=O)N[C@H]2[C@@H](O)[C@H](n3cnc4c(N(C)C)ncnc43)O[C@@H]2CO)cc1 [puromycin]
development after somatic cell nuclear transfer (human oocytes; [1]): development still arrested at cleavage stages
development after somatic cell nuclear transfer (human oocytes; oocyte genome not removed, puromycin for oocyte activation): efficient development to the blastocyst stage
oocytes segregating somatic chromatin into a polar body and forming a single pronucleus (enucleated human oocytes; activation with a calcium ionophore and puromycin): 16/19
oocyte activation shown by polar body extrusion (enucleated human oocytes; puromycin for 4 hours without meiotic kinase inhibitor, M-phase somatic genome): efficient polar body extrusion
efficiency of parthenogenesis (oocytes): more efficient

O=C(CCCCCN1C(=O)c2cccc3cccc(c23)C1=O)NO [scriptaid, 6-(1,3-Dioxo-1H,3H-benzo[de]isoquinolin-2-yl)-hexanoic acid hydroxyamide]
development after somatic cell nuclear transfer (human oocytes; [1]): development to the morula and blastocyst stage at a low frequency
frequency of chromosome segregation errors (enucleated mouse oocytes; first mitosis): decreased the frequency of chromosome segregation errors
